Among the data in PubChem BioAssay (NCI) are TGI and GI50 values, retold here.

Several values for one entry are separate records, joined by “and”; a condition that tells them apart may be missing. Equal values may be shown once.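 Five concentrations, 48 hours, 96-well plates. GI50: concentration for 50% inhibition of growth. TGI marks complete inhibition of growth.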

Test systems include LOX IMVI melanoma; MCF7 breast; RXF 393 renal; NCI-H460 lung; MDA-MB-435; CCRF-CEM leukemia; 786-0 renal; NCI/ADR-RES ovarian; PC-3 prostate; DU-145 prostate.
Holding throughout (assay): NCI anticancer screen, dose series, 48 h

Turning to `O=C(O)CCC(=O)c1ccc2ccc3cccc4ccc1c2c34`, the TGI in the experiment with LOX IMVI melanoma, in the experiment on MCF7 breast, with RXF 393 renal, with NCI-H460 lung, in the experiment with MDA-MB-435 and with CCRF-CEM leukemia was more than 100 µM each time. The TGI with 786-0 renal, with NCI/ADR-RES ovarian, with PC-3 prostate and in the experiment on DU-145 prostate was more than 100 µM in each case.
With `Cn1nnnc1N/N=C/c1ccccc1`, the TGI with LOX IMVI melanoma, with MCF7 breast, in the experiment on RXF 393 renal, with NCI-H460 lung, in the experiment on MDA-MB-435 and in the experiment on CCRF-CEM leukemia was more than 10 µM each time. The TGI with 786-0 renal, in the experiment with NCI/ADR-RES ovarian, with PC-3 prostate and in the experiment with DU-145 prostate was more than 10 µM in each case.
For `O=C(CF)N(O)c1ccc(/C=C/c2ccccc2)cc1`, the GI50 in the experiment on LOX IMVI melanoma is 2.53 µM; in the experiment on MCF7 breast, 0.304 µM; in the experiment on RXF 393 renal it was 3.13 µM; with NCI-H460 lung, 0.322 µM; in the experiment with MDA-MB-435, 8.48 µM; with CCRF-CEM leukemia, 2.16 µM. The GI50 in the experiment with 786-0 renal is 1.98 µM; in the experiment on NCI/ADR-RES ovarian, 2.52 µM; with PC-3 prostate, 5.6 µM; with DU-145 prostate, 1.48 µM. The TGI was more than 100 µM with LOX IMVI melanoma; more than 100 µM in the experiment on MCF7 breast; 25.1 µM in the experiment with RXF 393 renal; more than 100 µM with NCI-H460 lung; more than 100 µM in the experiment with MDA-MB-435; more than 100 µM in the experiment on CCRF-CEM leukemia. For the same compound, the TGI in the experiment on 786-0 renal was 7.14 µM; in the experiment with NCI/ADR-RES ovarian it was more than 100 µM; in the experiment with PC-3 prostate, more than 100 µM; in the experiment on DU-145 prostate, 6.96 µM.
For `CCN1C(NN)=NS(=O)(=O)c2ccccc21`, the TGI in the experiment with LOX IMVI melanoma, in the experiment on MCF7 breast, in the experiment with RXF 393 renal, in the experiment on NCI-H460 lung, in the experiment on MDA-MB-435 and in the experiment on CCRF-CEM leukemia was more than 100 µM throughout. The TGI with 786-0 renal, with NCI/ADR-RES ovarian, with PC-3 prostate and with DU-145 prostate was more than 100 µM throughout.
As to `O=C(CSC(c1ccccc1)c1ccccc1)N/N=C/c1cccc(Cl)c1`, the GI50 in the experiment on LOX IMVI melanoma was 17.9 µM; with MCF7 breast it was 19.1 µM; in the experiment with RXF 393 renal, 13.9 µM; in the experiment with NCI-H460 lung, 17.6 µM; in the experiment with MDA-MB-435, 22.5 µM; with CCRF-CEM leukemia it was 0.755 µM. Moreover, the GI50 in the experiment on 786-0 renal is 17.3 µM; with NCI/ADR-RES ovarian, 14.3 µM; in the experiment with PC-3 prostate, 19.4 µM; with DU-145 prostate, 16.4 µM. The TGI in the experiment with LOX IMVI melanoma worked out at 33.3 µM; in the experiment on MCF7 breast, 38.4 µM; in the experiment on RXF 393 renal, 29.5 µM; in the experiment with NCI-H460 lung it was 34.8 µM; with MDA-MB-435 it was 43.7 µM; in the experiment on CCRF-CEM leukemia, 31 µM. Besides, the TGI in the experiment on 786-0 renal was found to be 32.7 µM; in the experiment with NCI/ADR-RES ovarian, 31.8 µM; in the experiment on PC-3 prostate, 35.7 µM; in the experiment on DU-145 prostate it was 30 µM.
Regarding `COc1ccc2c(c1)C(=O)C(=O)c1cc(O)c(OC)c(OC)c1-2`, the GI50 in the experiment with LOX IMVI melanoma is 1.48 µM; in the experiment with MCF7 breast it was 1.96 µM; in the experiment with RXF 393 renal, 1.56 µM; in the experiment on NCI-H460 lung it was 1.64 µM; in the experiment on MDA-MB-435 it was 0.291 µM; with CCRF-CEM leukemia it was 0.451 µM. Also, the GI50 is 1.85 µM with 786-0 renal, 1.84 µM in the experiment with NCI/ADR-RES ovarian, 1.93 µM in the experiment with PC-3 prostate and 1.74 µM in the experiment on DU-145 prostate. Besides, the TGI with LOX IMVI melanoma was 1.83 µM and 3.16 µM; in the experiment on MCF7 breast, 1.74 µM and 3.59 µM; with RXF 393 renal, 1.65 µM and 3.63 µM; in the experiment on NCI-H460 lung, 9.97 µM and 3.16 µM; in the experiment with MDA-MB-435, 0.272 µM and 0.807 µM; in the experiment on CCRF-CEM leukemia, 2.65 µM and 2.92 µM. For the same compound, the TGI is 1.72 µM and 3.26 µM in the experiment with 786-0 renal; 2.41 µM and 5.22 µM with NCI/ADR-RES ovarian; 2.48 µM and 3.34 µM with PC-3 prostate; 1.75 µM and 3.12 µM in the experiment on DU-145 prostate.
On to `Oc1c(CN2CCCC2)cc(COCc2ccc(Br)cc2)c2cccnc12`, for which the GI50 is 0.37 µM with LOX IMVI melanoma; 0.316 µM in the experiment with MCF7 breast; 1.04 µM in the experiment with RXF 393 renal; 0.433 µM in the experiment with NCI-H460 lung; 1.49 µM in the experiment with MDA-MB-435; 0.443 µM in the experiment on CCRF-CEM leukemia. In addition, the GI50 in the experiment on 786-0 renal was 0.484 µM; in the experiment with NCI/ADR-RES ovarian, 0.0707 µM; in the experiment on PC-3 prostate, 1.01 µM; in the experiment on DU-145 prostate it was 0.868 µM. Besides, the TGI amounted to 1.54 µM with LOX IMVI melanoma; 1.37 µM in the experiment with MCF7 breast; 3.41 µM in the experiment with RXF 393 renal; 2.01 µM in the experiment with NCI-H460 lung; 14.4 µM with MDA-MB-435; 2.65 µM with CCRF-CEM leukemia. Besides, the TGI amounted to 2.59 µM with 786-0 renal, 1.13 µM in the experiment on NCI/ADR-RES ovarian, 5.97 µM with PC-3 prostate and 11 µM in the experiment with DU-145 prostate.
`Cc1ccc(C)c(NC(=O)NCc2ccc(Cl)cc2)c1`: the TGI is more than 100 µM in the experiment on LOX IMVI melanoma; more than 100 µM with MCF7 breast; 28.6 µM in the experiment on RXF 393 renal; more than 100 µM in the experiment with NCI-H460 lung; more than 100 µM in the experiment on MDA-MB-435; more than 27.6 µM in the experiment with CCRF-CEM leukemia. Also, the TGI with 786-0 renal is more than 90.3 µM; in the experiment with NCI/ADR-RES ovarian it was more than 100 µM; in the experiment with PC-3 prostate it was more than 100 µM; with DU-145 prostate, more than 100 µM.
Take `CC/C=C\C/C=C\C[C@H](O)C/C=C1/C(=O)C=C[C@@H]1C/C=C\CCCC(=O)O`: the GI50 in the experiment with LOX IMVI melanoma was 1.74 µM; in the experiment on MCF7 breast, 2.96 µM; in the experiment with RXF 393 renal, 2.94 µM; in the experiment on NCI-H460 lung, 3.84 µM; with MDA-MB-435, 3.1 µM; in the experiment with CCRF-CEM leukemia, 2.17 µM. Also, the GI50 in the experiment on 786-0 renal was 2.47 µM; in the experiment with NCI/ADR-RES ovarian, 3.24 µM; in the experiment with PC-3 prostate, 6.03 µM; in the experiment on DU-145 prostate, 5.17 µM. The TGI with LOX IMVI melanoma was 3.74 µM; in the experiment on MCF7 breast, 18.5 µM; in the experiment on RXF 393 renal, 8.71 µM; in the experiment with NCI-H460 lung it was more than 100 µM; in the experiment on MDA-MB-435, 12 µM; in the experiment with CCRF-CEM leukemia it was 14 µM. Besides, the TGI with 786-0 renal is 5.83 µM; with NCI/ADR-RES ovarian, more than 100 µM; with PC-3 prostate, 21.5 µM; in the experiment on DU-145 prostate it was 19 µM.
